Reference: PubChem BioAssay (NCI)
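Growth conditions: 96-well plates. Treatment: test compound, 48 hours, 5 concentrations. Analysis: linear interpolation between bracketing concentrations; unreached endpoints set to highest concentration. TGI denotes the concentration required for complete inhibition of growth.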

What was measured:
Test in all cases: NCI-60 cell line screen, 48 h
NCI-H23 lung = tested on: NCI-H23 lung
OVCAR-8 ovarian = tested on: OVCAR-8 ovarian
A498 renal = tested on: A498 renal
KM20L2 colon = tested on: KM20L2 colon
SN12C renal = tested on: SN12C renal
LOX IMVI melanoma = tested on: LOX IMVI melanoma
SK-OV-3 ovarian = tested on: SK-OV-3 ovarian
LXFL 529 NSCLC = tested on: LXFL 529 NSCLC
SK-MEL-28 melanoma = tested on: SK-MEL-28 melanoma
A549 NSCLC = tested on: A549 NSCLC
KM12 colon = tested on: KM12 colon
RPMI-8226 leukemia = tested on: RPMI-8226 leukemia
M14 melanoma = tested on: M14 melanoma
SK-MEL-2 melanoma = tested on: SK-MEL-2 melanoma
COLO 205 colon = tested on: COLO 205 colon
NCI-H226 lung = tested on: NCI-H226 lung
SF-268 CNS = tested on: SF-268 CNS
SF-295 CNS = tested on: SF-295 CNS
UACC-62 melanoma = tested on: UACC-62 melanoma
OVCAR-4 ovarian = tested on: OVCAR-4 ovarian
HL-60(TB) leukemia = tested on: HL-60(TB) leukemia
RXF-631 renal = tested on: RXF-631 renal
TK-10 renal = tested on: TK-10 renal
HCC-2998 colon = tested on: HCC-2998 colon
IGROV1 ovarian = tested on: IGROV1 ovarian
SF-539 CNS = tested on: SF-539 CNS
EKVX NSCLC = tested on: EKVX NSCLC
SW-620 colon = tested on: SW-620 colon
HOP-92 NSCLC = tested on: HOP-92 NSCLC
UACC-257 melanoma = tested on: UACC-257 melanoma
K-562 leukemia = tested on: K-562 leukemia
MALME-3M melanoma = tested on: MALME-3M melanoma
DMS 114 small cell lung = tested on: DMS 114 small cell lung
DMS 273 small cell lung = tested on: DMS 273 small cell lung
NCI-H460 lung = tested on: NCI-H460 lung
DLD-1 colon = tested on: DLD-1 colon
MOLT-4 leukemia = tested on: MOLT-4 leukemia
NCI-H522 lung = tested on: NCI-H522 lung
SNB-75 CNS = tested on: SNB-75 CNS
HCT-116 colon = tested on: HCT-116 colon
OVCAR-5 ovarian = tested on: OVCAR-5 ovarian
HCT-15 colon = tested on: HCT-15 colon
CCRF-CEM leukemia = tested on: CCRF-CEM leukemia
UO-31 renal = tested on: UO-31 renal
RXF 393 renal = tested on: RXF 393 renal
HT29 colon = tested on: HT29 colon
786-0 renal = tested on: 786-0 renal
SR leukemia = tested on: SR leukemia
HOP-62 NSCLC = tested on: HOP-62 NSCLC
U251 CNS = tested on: U251 CNS
ACHN renal = tested on: ACHN renal
CAKI-1 renal = tested on: CAKI-1 renal
SK-MEL-5 melanoma = tested on: SK-MEL-5 melanoma
SNB-78 CNS = tested on: SNB-78 CNS
SNB-19 CNS = tested on: SNB-19 CNS
OVCAR-3 ovarian = tested on: OVCAR-3 ovarian
HOP-18 NSCLC = tested on: HOP-18 NSCLC
XF 498 CNS = tested on: XF 498 CNS
M19-MEL melanoma = tested on: M19-MEL melanoma

Q: For `COC(=O)C1=CC(=O)C(C(=O)Nc2ccc(OC)cc2)C(c2ccccc2)O1` (stereo not drawn), which TGI (NCI-H23 lung) is on record?
A: 46.6 µM

Q: What about the TGI (OVCAR-8 ovarian) of the same molecule?
A: 96.8 µM

Q: What about the TGI (A498 renal) of the same molecule?
A: 68 µM

Q: And the TGI (KM20L2 colon)?
A: > 100 µM

Q: And the TGI (SN12C renal)?
A: > 89.1 µM

Q: What about the TGI (LOX IMVI melanoma) of the same molecule?
A: > 72.9 µM

Q: And the TGI (SK-OV-3 ovarian)?
A: 53.5 µM

Q: What about the TGI (LXFL 529 NSCLC) of the same molecule?
A: 62.4 µM

Q: What about the TGI (SK-MEL-28 melanoma) of the same molecule?
A: > 86.3 µM

Q: And the TGI (A549 NSCLC)?
A: > 72.9 µM

Q: And the TGI (KM12 colon)?
A: > 100 µM

Q: What about the TGI (RPMI-8226 leukemia) of the same molecule?
A: > 100 µM

Q: And the TGI (M14 melanoma)?
A: 98.7 µM

Q: What about the TGI (SK-MEL-2 melanoma) of the same molecule?
A: > 100 µM

Q: What about the TGI (COLO 205 colon) of the same molecule?
A: > 100 µM

Q: And the TGI (NCI-H226 lung)?
A: 55.1 µM

Q: And the TGI (SF-268 CNS)?
A: 37.3 µM

Q: What about the TGI (SF-295 CNS) of the same molecule?
A: 61.4 µM

Q: What about the TGI (UACC-62 melanoma) of the same molecule?
A: > 89.6 µM

Q: What about the TGI (OVCAR-4 ovarian) of the same molecule?
A: > 77.9 µM

Q: And the TGI (HL-60(TB) leukemia)?
A: > 100 µM

Q: What about the TGI (RXF-631 renal) of the same molecule?
A: > 83.6 µM

Q: And the TGI (TK-10 renal)?
A: 73.5 µM

Q: What about the TGI (HCC-2998 colon) of the same molecule?
A: > 78.7 µM

Q: What about the TGI (IGROV1 ovarian) of the same molecule?
A: 51 µM

Q: And the TGI (SF-539 CNS)?
A: 40.3 µM

Q: And the TGI (EKVX NSCLC)?
A: > 100 µM

Q: And the TGI (SW-620 colon)?
A: > 100 µM

Q: What about the TGI (HOP-92 NSCLC) of the same molecule?
A: 48.1 µM

Q: And the TGI (UACC-257 melanoma)?
A: > 100 µM

Q: What about the TGI (K-562 leukemia) of the same molecule?
A: > 100 µM

Q: What about the TGI (MALME-3M melanoma) of the same molecule?
A: > 84.8 µM

Q: And the TGI (DMS 114 small cell lung)?
A: > 67.5 µM

Q: What about the TGI (DMS 273 small cell lung) of the same molecule?
A: > 71 µM

Q: And the TGI (NCI-H460 lung)?
A: > 100 µM

Q: And the TGI (DLD-1 colon)?
A: > 100 µM

Q: What about the TGI (MOLT-4 leukemia) of the same molecule?
A: > 100 µM

Q: What about the TGI (NCI-H522 lung) of the same molecule?
A: 90.1 µM

Q: What about the TGI (SNB-75 CNS) of the same molecule?
A: 43.1 µM

Q: And the TGI (HCT-116 colon)?
A: > 75.9 µM

Q: What about the TGI (OVCAR-5 ovarian) of the same molecule?
A: > 100 µM

Q: What about the TGI (HCT-15 colon) of the same molecule?
A: > 100 µM

Q: What about the TGI (CCRF-CEM leukemia) of the same molecule?
A: > 100 µM

Q: And the TGI (UO-31 renal)?
A: 90.6 µM

Q: And the TGI (RXF 393 renal)?
A: 52.8 µM

Q: And the TGI (HT29 colon)?
A: > 100 µM

Q: And the TGI (786-0 renal)?
A: 41.5 µM

Q: What about the TGI (SR leukemia) of the same molecule?
A: > 100 µM

Q: What about the TGI (HOP-62 NSCLC) of the same molecule?
A: 50.9 µM

Q: And the TGI (U251 CNS)?
A: 51.2 µM

Q: And the TGI (ACHN renal)?
A: > 71.9 µM

Q: And the TGI (CAKI-1 renal)?
A: > 60 µM

Q: What about the TGI (SK-MEL-5 melanoma) of the same molecule?
A: > 73.7 µM

Q: And the TGI (SNB-78 CNS)?
A: > 81.9 µM

Q: What about the TGI (SNB-19 CNS) of the same molecule?
A: 42 µM

Q: What about the TGI (OVCAR-3 ovarian) of the same molecule?
A: 58.8 µM

Q: Which TGI (NCI-H23 lung) does the source give for `COC(=O)C1=C(O)C(O)=C(C(=O)OC)CC1` here?
A: > 100 µM

Q: What about the TGI (OVCAR-8 ovarian) of the same molecule?
A: > 100 µM

Q: What about the TGI (A498 renal) of the same molecule?
A: > 100 µM

Q: And the TGI (SN12C renal)?
A: > 100 µM

Q: What about the TGI (LOX IMVI melanoma) of the same molecule?
A: > 100 µM

Q: What about the TGI (SK-OV-3 ovarian) of the same molecule?
A: > 100 µM

Q: What about the TGI (LXFL 529 NSCLC) of the same molecule?
A: > 100 µM

Q: And the TGI (SK-MEL-28 melanoma)?
A: > 100 µM

Q: What about the TGI (HOP-18 NSCLC) of the same molecule?
A: > 100 µM

Q: What about the TGI (A549 NSCLC) of the same molecule?
A: > 100 µM

Q: What about the TGI (KM12 colon) of the same molecule?
A: > 100 µM

Q: And the TGI (RPMI-8226 leukemia)?
A: > 100 µM

Q: And the TGI (M14 melanoma)?
A: > 100 µM

Q: And the TGI (SK-MEL-2 melanoma)?
A: > 100 µM

Q: And the TGI (XF 498 CNS)?
A: > 100 µM

Q: And the TGI (COLO 205 colon)?
A: > 100 µM

Q: What about the TGI (NCI-H226 lung) of the same molecule?
A: > 100 µM

Q: What about the TGI (SF-268 CNS) of the same molecule?
A: > 100 µM

Q: And the TGI (SF-295 CNS)?
A: > 100 µM

Q: And the TGI (UACC-62 melanoma)?
A: > 100 µM

Q: And the TGI (OVCAR-4 ovarian)?
A: > 100 µM

Q: And the TGI (HL-60(TB) leukemia)?
A: > 100 µM

Q: And the TGI (TK-10 renal)?
A: > 100 µM

Q: What about the TGI (HCC-2998 colon) of the same molecule?
A: > 100 µM

Q: What about the TGI (IGROV1 ovarian) of the same molecule?
A: > 100 µM

Q: And the TGI (SF-539 CNS)?
A: > 100 µM

Q: And the TGI (EKVX NSCLC)?
A: > 100 µM

Q: And the TGI (SW-620 colon)?
A: > 100 µM

Q: What about the TGI (HOP-92 NSCLC) of the same molecule?
A: > 100 µM

Q: What about the TGI (UACC-257 melanoma) of the same molecule?
A: > 100 µM

Q: What about the TGI (K-562 leukemia) of the same molecule?
A: > 100 µM

Q: And the TGI (MALME-3M melanoma)?
A: > 100 µM

Q: And the TGI (DMS 114 small cell lung)?
A: > 100 µM

Q: What about the TGI (DMS 273 small cell lung) of the same molecule?
A: > 100 µM

Q: What about the TGI (NCI-H460 lung) of the same molecule?
A: > 100 µM

Q: What about the TGI (DLD-1 colon) of the same molecule?
A: > 100 µM

Q: What about the TGI (MOLT-4 leukemia) of the same molecule?
A: > 100 µM

Q: What about the TGI (NCI-H522 lung) of the same molecule?
A: > 100 µM

Q: What about the TGI (SNB-75 CNS) of the same molecule?
A: > 100 µM

Q: What about the TGI (HCT-116 colon) of the same molecule?
A: 28.9 µM

Q: And the TGI (OVCAR-5 ovarian)?
A: > 100 µM

Q: What about the TGI (HCT-15 colon) of the same molecule?
A: > 100 µM

Q: What about the TGI (CCRF-CEM leukemia) of the same molecule?
A: > 100 µM

Q: What about the TGI (UO-31 renal) of the same molecule?
A: > 100 µM

Q: And the TGI (RXF 393 renal)?
A: 35.1 µM

Q: And the TGI (HT29 colon)?
A: > 100 µM

Q: And the TGI (M19-MEL melanoma)?
A: > 100 µM

Q: What about the TGI (786-0 renal) of the same molecule?
A: > 100 µM

Q: What about the TGI (SR leukemia) of the same molecule?
A: > 100 µM

Q: And the TGI (HOP-62 NSCLC)?
A: > 100 µM

Q: What about the TGI (U251 CNS) of the same molecule?
A: > 100 µM

Q: What about the TGI (ACHN renal) of the same molecule?
A: > 100 µM

Q: What about the TGI (CAKI-1 renal) of the same molecule?
A: > 100 µM

Q: What about the TGI (SK-MEL-5 melanoma) of the same molecule?
A: > 100 µM

Q: What about the TGI (SNB-78 CNS) of the same molecule?
A: > 100 µM

Q: And the TGI (SNB-19 CNS)?
A: > 100 µM

Q: What about the TGI (OVCAR-3 ovarian) of the same molecule?
A: > 100 µM
